Legend:
[1] = biological target: T1, Pasteurella multocida PmST1 mutant M144H of SEQ ID NO: 13 (M120H of Δ24PmST1, SEQ ID NO: 5) (Pasteurella multocida, UniProt Q15KI8, M144H); assay: α2-3-sialyltransferase activity, Le^xβMU as acceptor; format: biochemical; details: apparent, acceptor, CMP-Neu5Ac 1 mM, CAPSO pH 9.5, 37° C.
Description: (§1) Site-directed mutagenesis, expression and purification of PmST1 mutants. Site-directed mutagenesis was performed using the QuikChange multi-site-directed mutagenesis kit from Stratagene according to the manufacturer's protocol. The primers used were 5′-[…]-3′ (SEQ ID NO:35) for M144D; 5′-[…]a[…] -3′ (SEQ ID NO:36) for M144H; 5′-[…]-3′ (SEQ ID NO:37) for A35D; and 5′-[…]-3′ (SEQ ID NO:38) for A35H. The expression and purification of the mutants were performed as previously described for the WT PmST1 .
(§2) Kinetics of the α2-3-sialyltransferase activity of PmST1 mutants by HPLC analysis. With LacβMU as the acceptor substrate, the reactions were performed in duplicate at 37° C. for 10 min (M144D) or 4 min (M144H) in a reaction mixture (10 μL) containing Tris-HCl (100 mM, pH 8.5), an enzyme (5 μg mL^−1), and different concentrations (0.2, 0.5, 1.0, 2.0, and 5.0 mM) of LacβMU with a fixed concentration (1 mM) of CMP-Neu5Ac or different concentrations (0.2, 0.5, 1.0, 2.0, 5.0, and 10.0 mM) of CMP-Neu5Ac with a fixed concentration (1 mM) of LacβMU. With Le^xβMU as the acceptor substrate, the reactions were carried out in duplicate at 37° C. for 9 min (M144D) or 10 min (M144H) in a reaction mixture (10 μL) containing CAPSO (100 mM, pH 9.5), an enzyme (M144D, 39 μg mL^−1 or M144H, 5 μg mL^−), and various concentrations of Le^xβMU (1.0, 5.0, 10.0, 15.0, 25.0, and 35.0 mM) with a fixed concentration (1 mM) of CMP-Neu5Ac or various concentrations (0.2, 0.5, 1.0, 2.0, 5.0, 10.0, 20.0, and 40.0 mM) of CMP-Neu5Ac with a fixed concentration (1 mM) of Le^xβMU. Reactions were stopped by adding 10 μL of pre-chilled ethanol. The mixtures were incubated on ice for 30 min and centrifuged at 13,000 rpm for 5 min. The supernatants were diluted with 25% acetonitrile and kept on ice until aliquots of 8 μL were injected and analyzed by the Shimadzu LC-6AD system equipped with a membrane on-line degasser, a temperature control unit, and a fluorescence detector (Shimadzu RF-10AXL). A reverse-phase Premier C18 column (250×4.6 mm i.d., 5 μm particle size, Shimadzu) protected with a C18 guard column cartridge was used. The mobile phase was 25% acetonitrile. The fluorophore (MU)-labeled compounds were detected by excitation at 325 nm and emission at 372 nm. The apparent kinetic parameters were obtained by fitting the experimental data (the average values of duplicate assay results) into the Michaelis-Menten equation using Grafit 5.0.

[2] = biological target: T2, Pasteurella multocida PmST1 mutant M144D of SEQ ID NO: 13 (M120D of Δ24PmST1, SEQ ID NO: 3) (Pasteurella multocida, UniProt Q15KI8, M144D); assay: as above; format: biochemical; details: apparent, acceptor, CMP-Neu5Ac 1 mM, CAPSO pH 9.5, 37° C.
Description: as §1, §2

[3] = biological target: Pasteurella multocida α2-3-sialyltransferase 1 (PmST1), wild type (WT), SEQ ID NO: 13 (Pasteurella multocida, UniProt Q15KI8); details: apparent, acceptor, read-out: Km for LacβMU; cited from earlier work
[4] = biological target: T1, Pasteurella multocida PmST1 mutant M144H of SEQ ID NO: 13 (M120H of Δ24PmST1, SEQ ID NO: 5); assay: α2-3-sialyltransferase activity, LacβMU as acceptor; format: biochemical; details: apparent, acceptor, CMP-Neu5Ac 1 mM, Tris-HCl pH 8.5, 37° C.
Description: as §1, §2

[5] = biological target: T2, Pasteurella multocida PmST1 mutant M144D of SEQ ID NO: 13 (M120D of Δ24PmST1, SEQ ID NO: 3); assay: as above; format: biochemical; details: apparent, acceptor, CMP-Neu5Ac 1 mM, Tris-HCl pH 8.5, 37° C.
Description: as §1, §2

[6] = biological target: Pasteurella multocida PmST1 mutant E271F of SEQ ID NO: 13 (E247F of Δ24PmST1, SEQ ID NO: 7) (Pasteurella multocida, UniProt Q15KI8, E271F); assay: as above; format: biochemical; details: apparent, acceptor, CMP-Neu5Ac 1 mM, Tris-HCl pH 8.5, 37° C.
Description: (§3) To obtain the apparent kinetic parameters of LacβMU as the acceptor for the α2-3-sialyltransferase activity, the kinetic assays were performed in duplicate in reaction mixtures of 10 μL containing Tris-HCl buffer (100 mM, pH 8.5), a fixed concentration of CMP-Neu5Ac (1 mM), different concentrations of LacβMU (0.2, 0.5, 1.0, 2.0, 5.0, and 9.0 mM) and the mutant proteins (2 μg mL^−1 of E271F, 2 μg mL^−1 of R313Y, and 1.6 μg mL^−1 of E271F/R313Y). All reactions were allowed to proceed at 37° C. for 5 min (E271F), 7 min (R313Y), and 10 min (E271F/R313Y). The apparent kinetic parameters were obtained by fitting the experimental data (the average values of duplicate assay results) into the Michaelis-Menten equation using Grafit 5.0.
(§4) To obtain the apparent kinetic parameters of CMP-Neu5Ac as the donor for the α2-3-sialyltransferase activity, the kinetic assays were performed in duplicate in reaction mixtures of 10 μL containing Tris-HCl buffer (100 mM, pH 8.5), a fixed concentration of LacβMU (1 mM), different concentrations of CMP-Neu5Ac (0.1, 0.2, 0.5, 1.0, 2.0, 5.0, 10.0 and 20.0 mM) and the mutant proteins (2 μg mL^−1 of E271F, 2 μg mL^−1 of R313Y, and 1.6 μg mL^−1 of E271F/R313Y). All reactions were allowed to proceed at 37° C. for 2 min (E271F), 7 min (R313Y), and 5 min (E271F/R313Y). The apparent kinetic parameters were obtained by fitting the experimental data (the average values of duplicate assay results) into the Michaelis-Menten equation using Grafit 5.0.
(§5) All the sialidase and α2-3-sialyltransferase assays were performed in an HPLC system. Reactions were stopped by adding 10 μL of ethanol. After necessary dilutions were performed to adjust the concentrations of the fluorescent-labeled compounds, the samples were then kept on ice until aliquots of 8 μL were injected and analyzed by a Shimadzu LC-6AD system equipped with a membrane on-line degasser, a temperature control unit, and a fluorescence detector (Shimadzu RF-10AXL). A reverse-phase Premier C18 column (250×4.6 mm i.d., 5 μm particle size, Shimadzu) protected with a C18 guard column cartridge was used. The mobile phase was 25% acetonitrile. The fluorescent compounds LacβMU and Neu5Acα2-3LacβMU were detected by excitation at 325 nm and emission at 372 nm.

[7] = biological target: Pasteurella multocida PmST1 mutant R313Y of SEQ ID NO: 13 (R289Y of Δ24PmST1, SEQ ID NO: 9) (Pasteurella multocida, UniProt Q15KI8, R313Y); assay: as above; format: biochemical; details: apparent, acceptor, CMP-Neu5Ac 1 mM, Tris-HCl pH 8.5, 37° C.
Description: as §3, §4, §5

[8] = biological target: Pasteurella multocida PmST1 double mutant E271F/R313Y of SEQ ID NO: 13 (E247F/R289Y of Δ24PmST1, SEQ ID NO: 11) (Pasteurella multocida, UniProt Q15KI8, E271F/R313Y); assay: as above; format: biochemical; details: apparent, acceptor, CMP-Neu5Ac 1 mM, Tris-HCl pH 8.5, 37° C.
Description: as §3, §4, §5

[9] = test system: CC(=O)N[C@H]1[C@H]([C@H](O)[C@H](O)CO)O[C@@](O[C@H]2[C@@H](O)[C@@H](CO)O[C@@H](O[C@H]3[C@H](O)[C@@H](O)[C@H](Oc4ccc5c(C)cc(=O)oc5c4)O[C@@H]3CO)[C@@H]2O)(C(=O)O)C[C@@H]1O; assay: α2-3-sialidase activity, Neu5Acα2-3LacβMU as substrate; format: biochemical, Pasteurella multocida; details: other: apparent, D141A, MES pH 5.5, 37° C., 60 min
Description: Kinetic Assays. […] The apparent kinetic parameters were obtained by fitting the experimental data (the average values of duplicate assay results) into the Michaelis-Menten equation using Grafit 5.0.
as §5

[10] = test system: CC(=O)N[C@H]1[C@H]([C@H](O)[C@H](O)CO)O[C@](OP(=O)(O)OC[C@H]2O[C@@H](n3ccc(N)nc3=O)[C@H](O)[C@@H]2O)(C(=O)O)C[C@@H]1O; assay: purified protein, by the assay type; details: other: apparent, donor hydrolysis, D141A, Tris-HCl pH 8.5, 37° C., 40 min
Description: The reactions were stopped by adding 10 μL of pre-chilled ethanol. The mixtures were incubated on ice for 30 min and centrifuged at 13,000 rpm for 5 min. The supernatants were diluted with borate buffer (25 mM, pH 9.5) and aliquotes of 5 μL each were injected to a Beckman Coulter P/ACE™ MDQ Capillary Electrophoresis system equipped with a capillary (60 cm×75 μm i.d.) and monitored at 254 nm. The apparent kinetic parameters were obtained by fitting the experimental data (the average values of duplicate assay results) into the Michaelis-Menten equation using Grafit 5.0.

## CC(=O)N[C@H]1[C@H](Oc2ccc3c(C)cc(=O)oc3c2)O[C@H](CO)[C@@H](O[C@@H]2O[C@H](CO)[C@H](O)[C@H](O)[C@H]2O)[C@@H]1O[C@@H]1O[C@@H](C)[C@@H](O)[C@@H](O)[C@@H]1O [Le^xβMU, 4-methylumbelliferyl β-Le^x]
[1]
  kcat (Le^xβMU): 8.4 ± 0.3 s⁻¹
[2]
  kcat (Le^xβMU): 4.0 ± 0.2 s⁻¹

## Cc1cc(=O)oc2cc(O[C@@H]3O[C@H](CO)[C@@H](O[C@@H]4O[C@H](CO)[C@H](O)[C@H](O)[C@H]4O)[C@H](O)[C@H]3O)ccc12 [LacβMU, 4-methylumbelliferyl β-lactoside]
[3]
  Km: 1400 µM
[4]
  kcat (LacβMU): 21 ± 1 s⁻¹
[5]
  kcat (LacβMU): 22 ± 1 s⁻¹
[6]
  kcat (LacβMU): 28 ± 1 s⁻¹
[7]
  kcat (LacβMU): 19 ± 1 s⁻¹
[8]
  kcat (LacβMU): 17 ± 1 s⁻¹

## Pasteurella multocida PmST1 mutant D141A (Pasteurella multocida; D141A)
[9]
  Km: 15000 ± 1000 µM
[10]
  Km: 1400 ± 200 µM

— US9255257B2, “PmST1 mutants for chemoenzymatic synthesis of sialyl lewis X compounds” (THE REGENTS OF THE UNIVERSITY OF CALIFORNIA, priority 2011, dated 2016)
